Data published in patent publication US6593365B1, “Diflunisal esters and related compounds” (The University of Queensland, priority 1997, dated 2003).
“And” between values parts separate entries of the source, which are not always exact repeats. Equal values may be shown once. Marks after values point to notes of the source that are not given here.

Tests used:
[1] = tested on: OH. generated from Fenton's reaction; test: Luminol-dependent chemiluminescence induced by Fenton's reagent; assay type: biochemical; parameters: unit of the concentration uncertain; settings: F: CL induced by Fenton's reagent, n=3
Experimental: CL was measured with a luminometer (Model 1250; LKB Wallac, Finland) and recorded in millivolts (Cheung et al., 1984, supra).
Fenton's reagent (FeSO4 and H2O2) was used as a standard reaction mixture for the generation of OH. (Lai and Piette, 1979, Tetrahedron Lett. 775-778):
Fe^+++H2O2→Fe^++++OH.+OH (1)
The initial reaction mixture consisted of 20 μL of 3.8 mM FeSO4.7H2O, 20 μL of 5 mg/mL luminol (Sigma), and 2 mL of 1 mM phosphate buffer in a 3 mL polystyrene cuvette. Twenty microlitres of 320 mM H2O2 was added to initiate the Fenton's reaction.
A known concentration of the ethanolic (≲1%) aspirin analogue or diflunisal ester's stock solution was added to the 1 mM phosphate buffer to prepare solutions with a final concentration of 50 μM, 250 μM or 500 μM. Twenty microlitres of these test samples was added onto the cuvette which contained the initial reaction mixture. H2O2 was added to induce CL reaction. The luminol-dependent CL response was recorded in mV by a potentiometric recorder.
(§1) CL measurements were always done in triplicate and Student's t-test used to assess the statistical significance of the difference between measurements.

[2] = Intrinsic (maximum) solubility in water at pH 1.5; assay type: physicochemical; settings: for solubility: 25 °C, pH 1.5, simulated gastric fluid
Experimental: The pH conditions were chosen to ensure that the solubility of the unionised species was estimated. […] Lea & Febiger/Philadelphia. […] […] The solvent (9.9 mL) was then added to the test tube. […] The test tube was sonicated for 15 minutes and centrifuged for 10 minutes (3000 g at 25° C.). An aliquot was filtered (Minisart 0.45 μm filter, Satorius) and diluted with HPLC mobile phase, then assayed. The tube was stored carefully in a 25° C. water bath after sampling and the remaining suspension was again sonicated and the process repeated 7 times at four hourly intervals. In these assays, standard curves were prepared by directly dissolving the esters in mobile phase. Concentrations for standard curves ranged from 1-50 μg/mL for all compounds. Furthermore, a manual injector (Waters Model U6K) was used (20 μL sample loop) which ensured that 20 μL was consistently injected onto the column and precluded the need for an internal standard.

[3] = target: T1, BSA (bovine serum albumin) (Bos taurus, UniProt P02769); test: Protein binding by ultrafiltration in 2% BSA Krebs buffer; assay type: in vitro ADME; settings: 2% BSA Krebs-Henseleit buffer pH 7.4, 37° C.; slope of Scatchard plot
T1 construct: BSA (bovine serum albumin, fraction V, Sigma); purchased Sigma; host or cells: bovine serum (fraction V)
Experimental: These experiments were carried out in Krebs-Henseleit buffer containing 2% w/v BSA (pH 7.4) and incubated at 37° C. for 30 minutes.
A known concentration of the ethanolic (≲1%) aspirin analogue or diflunisal ester stock solution was added to the 2% BSA Krebs solution to make final concentrations of 125 μM, 250 μM and 500 μM.
The unbound fraction (fu) of parent drug and its hydrolysis product were investigated using ultra-filtration: A 1.0 mL aliquot sample (in triplicate) was placed in a ultrafiltration tube (MPS-1, micro-partition system, Amicon) and centrifuged at 3000 g for 10 minutes. The ultra-filtrate was then assayed for parent drug and its hydrolysis product by HPLC.
To eliminate possible errors caused by hydrolysis, identical samples were placed in normal tubes and subjected to the same procedure. This control group (also in triplicate) was used to adjust for the percentage of hydrolysis in the ultra-filtrate under the experimental conditions.
The fu was determined as the ratio of the free concentration to total concentration of solutes. The binding constant (K) was determined from the slope of a Scatchard plot using following equation:
[Db]/[D]=−K[Db]vK[Pt] (3)
where [Db] is the concentration of bound drug, [D] is the concentration of drug, [Pt] is the concentration of total protein, and v is the number of independent binding sites available. This equation is plotted as the ratio [Db]/[D] versus [Db] and in this way the binding constant (K) is determined from the slope while vK[Pt] is determined from the intercept (Martin, 1983).

[4] = tested on: in-situ perfused rat liver; test: In-situ rat liver perfusions, hepatic extraction (Example 4); assay type: in vitro ADME; settings: hepatic extraction=1- hepatic availability (F)
Experimental: The hepatic availability (F) for the O-acyl esters of SA and DF was determined using a once through in-situ perfused rat liver preparation (Mellick and Roberts, 1996, J Pharm Pharmacol 48:738-743). Liver was perfused with protein-free Krebs-Henseleit buffer at 30 mL/min for aspirin analogues and with Krebs-Henseleit buffer containing 2% BSA for diflunisal esters studies. Since the solubilities of the diflunisal esters in protein-free media were very low, 2% BSA were used to help to solubilize these compounds. Briefly, 50 μL of a saturated solution of the particular O-acyl SA or DF in Krebs-Henseleit buffer was injected as a bolus into the portal vein cannula. Perfusate outflow samples have collected via a fraction collector over 3 min. 100 μL of these samples was assayed by HPLC to determine the residual concentration of presented ester and the quantity of phenolic metabolite (SA or DF) collected from the perfused liver. The HPLC assay was a modification of the method used by Owen et al. (1987, J Chrom B Biomed Appl 416 293-302) and Rumble et al. (1981, J Chrom 225 252-260).
The hepatic availability (F) was calculated from the ratio of the area under the first moment curve, i.e., outflow concentration time-time profile to the area under the curve for the salicylate phenolic esters, with the assistance of the Moments Calculator 2.2 program for Macintosh computer developed by Robert Purves (1994, J Pharm Sci 83:202-205).

[5] = tested on: superoxide generated from xanthine oxidase plus xanthine reaction; test: Xanthine oxidase plus xanthine-induced chemiluminescence; assay type: biochemical; parameters: dose or concentration left out as unconfirmed; settings: X: CL induced by xanthine oxidase plus xanthine
Experimental: To clarify the role of aspirin analogues and diflunisal esters in free radicals scavenging, the Fenton's reagent was replaced by an artificial superoxide generating system in the CL inhibition studies. This cell-free system consisted of 100 μg/mL of xanthine oxidase (Sigma) plus 0.5 μM xanthine (Sigma) (Rosen and Klebanoff, 1976, J Clin Invest 58 50-60; Cheson et al., 1976, J Clin Invest 58 789-796).
as §1

[6] = target: T1, BSA (bovine serum albumin); settings: 2% BSA; Hung et al., 1996; cited from earlier work
[7] = 0.5 (unit uncertain) compound, U = undetectable
[8] = 2% BSA in Krebs-Henseleit buffer as perfusate
[9] = protein-free Krebs-Henseleit buffer as perfusate

T1 sequence (P02769 25-607): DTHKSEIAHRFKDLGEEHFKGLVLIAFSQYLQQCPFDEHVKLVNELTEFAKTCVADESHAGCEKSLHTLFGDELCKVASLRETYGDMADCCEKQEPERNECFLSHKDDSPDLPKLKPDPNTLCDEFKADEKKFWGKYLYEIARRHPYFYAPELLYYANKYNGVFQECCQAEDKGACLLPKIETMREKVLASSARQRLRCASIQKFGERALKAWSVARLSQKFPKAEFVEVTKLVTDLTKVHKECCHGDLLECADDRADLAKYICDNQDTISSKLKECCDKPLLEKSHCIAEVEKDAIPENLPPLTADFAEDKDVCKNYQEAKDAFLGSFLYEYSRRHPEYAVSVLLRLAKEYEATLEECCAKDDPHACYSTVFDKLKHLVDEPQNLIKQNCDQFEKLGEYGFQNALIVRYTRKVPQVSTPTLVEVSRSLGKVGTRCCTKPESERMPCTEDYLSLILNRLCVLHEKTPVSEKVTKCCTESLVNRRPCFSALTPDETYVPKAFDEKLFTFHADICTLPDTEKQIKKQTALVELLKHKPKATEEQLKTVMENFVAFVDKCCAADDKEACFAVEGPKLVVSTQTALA

Compound | CL inhibition (%) [1, 7] | CL inhibition (%) ([1]; 2.5 (unit uncertain) compound) | CL inhibition (%) ([1]; 5 (unit uncertain) compound) | Maximum solubility ([2]; water at pH 1.5, 25 1° C., U = Undetectable) [µM] | Protein binding constant (K) [3] [L/mol] | Hepatic extraction [4, 8] | CL inhibition (%) [5] [%] | fub (unbound fraction) [6] | solubility [2] | Hepatic extraction [4, 9]
CC(=O)Oc1ccc(-c2ccc(F)cc2F)cc1C(=O)O [Compound C2D, acetyldiflunisal] | 21.3 ± 5.0% | 49.8 ± 3.9 | 91.2 ± 0.6 | 30 | 2077 | 0.49 | 0.5 ± 0.0 | 0.27 ± 0.02 |  | 
CCCC(=O)Oc1ccc(-c2ccc(F)cc2F)cc1C(=O)O [Compound C4D, n-butanoyldiflunisal] | 16.9 ± 4.9% | 65.1 ± 2.1 | 93.7 ± 0.5 |  | 2365 | 0.66 | 0.6 ± 0.1 | 0.14 ± 0.01 |  | 
CCCC(=O)Oc1ccccc1C(=O)O [Compound C4SA, n-butanoylsalicylic acid] |  | 41.3 ± 7.5 | 84.2 ± 1.4 |  |  |  | 0.3 ± 0.1 |  | 570 µg/mL and 2700 µM | 0.60
CCCCC(=O)Oc1ccc(-c2ccc(F)cc2F)cc1C(=O)O [Compound C5D, n-pentanoyldiflunisal] | 22.2 ± 7.1% | 58.2 ± 2.5 | 88.8 ± 0.9 |  | 2707 | 0.62 | 0.8 ± 0.0 | 0.12 ± 0.01 |  | 
CCCCC(=O)Oc1ccccc1C(=O)O [Compound C5SA, n-pentanoylsalicylic acid] | 0.4 ± 0.1^e % | 45.9 ± 5.0 | 95.6 ± 0.4 |  | 1525 |  | 0.3 ± 0.0 |  | 74 µg/mL and 330 µM | 0.74
CCCCCC(=O)Oc1ccc(-c2ccc(F)cc2F)cc1C(=O)O [Compound C6D, n-hexanoyldiflunisal] | 20.5 ± 4.6% | 54.8 ± 2.4 | 92.7 ± 3.1 |  | 2995 | 0.62 | 0.7 ± 0.1 | 0.08 ± 0.00 |  | 
CCCCCC(=O)Oc1ccccc1C(=O)O [Compound C6SA, n-hexanoylsalicylic acid] | 0.2 ± 0.1% | 56.0 ± 3.7 | 96.0 ± 2.1 |  | 2071 |  | 0.2 ± 0.0 |  | 19 µg/mL and 80 µM | 0.98
O=C(O)c1cc(-c2ccc(F)cc2F)ccc1O [DF, 2′,4′-difluoro-4-hydroxy-3-biphenylcarboxylic acid, reference compound] | 19.2 ± 6.9% | 50.6 ± 2.8 | 92.1 ± 0.6 |  |  | 0.38 | 0.4 ± 0.1 |  |  | 
O-acetylsalicylic acid [Compound C2SA, reference compound] |  | 43.3 ± 5.0 | 97.6 ± 0.5 |  | 192 |  | 0.4 ± 0.1 |  |  | 0.15
